Test system: MV4:11 human cancer cell lines
Assay: Cellular viability / anti-proliferative activity, CellTiter-Glo, 5 day protocol
Assay type: cell-based
Details: Homo sapiens, MV4-11, 120 h, MV4:11 cells; 5 day incubation; CellTiter-Glo; mean of minimum two replicates; read-out: GI50 on cellular proliferation of MV4:11 human cancer cell lines
In short: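 Cells seeded at 200 per well (7200 cells/mL) with compound in 2-fold serial dilutions from 30 μM top (22 points), 0.3% DMSO final. Viability read by CellTiter-Glo luminescence after 5 days; GI50 from sigmoidal dose-response fit, mean of at least two replicates.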

GI50 | SMILES
> 938 nM | CCn1cc(-c2cc(Cn3ccsc3=N)cc3c2CCN(Cc2cc(OC)ccn2)C3=O)cn1 [Example 102, 5-(1-ethyl-1H-pyrazol-4-yl)-7-((2-iminothiazol-3(2H)-yl)methyl)-2-((4-methoxypyridin-2-yl)methyl)-3,4-dihydroisoquinolin-1(2H)-one]
< 50 nM | Cc1cc([C@H](C)N2CCc3c(cc(Cn4ccnc4C)cc3-c3cn(C)nc3C(F)(F)F)C2=O)ccc1F [Example 24, (S)-2-(1-(4-Fluoro-3-methylphenyl)ethyl)-7-((2-methyl-1H-imidazol-1-yl)methyl)-5-(1-methyl-3-(trifluoromethyl)-1H-pyrazol-4-yl)-3,4-dihydroisoquinolin-1(2H)-one]
> 938 nM | CCn1cc(-c2cc(Cn3ccn(C4CC4)c3=N)cc3c2CCN(Cc2cc(OC)ccn2)C3=O)cn1 [Example 50, 7-((3-Cyclopropyl-2-imino-2,3-dihydro-1H-imidazol-1-yl)methyl)-5-(1-ethyl-1H-pyrazol-4-yl)-2-((4-methoxypyridin-2-yl)methyl)-3,4-dihydroisoquinolin-1(2H)-one]
152 nM | CCn1cc(-c2cc(Cn3cnc(C)c3C)cc3c2CCN([C@@H](C)c2cc(OC)ccn2)C3=O)c(C(F)(F)F)n1 [Example 178, (S)-7-((4,5-Dimethyl-1H-imidazol-1-yl)methyl)-5-(1-ethyl-3-(trifluoromethyl)-1H-pyrazol-4-yl)-2-(1-(4-methoxypyridin-2-yl)ethyl)-3,4-dihydroisoquinolin-1(2H)-one]
423 nM | COc1ccnc(CN2CCc3c(cc(Cn4ccn(C5CC5)c4=N)cc3-c3cn(C)nc3C)C2=O)c1 [Example 48]
< 50 nM | COc1ccnc([C@H](C)N2CCc3c(cc(Cn4ccsc4=N)cc3-c3cn(C)nc3C(F)(F)F)C2=O)c1 [Example 105, (S)-7-((2-iminothiazol-3(2H)-yl)methyl)-2-(1-(4-methoxypyridin-2-yl)ethyl)-5-(1-methyl-3-(trifluoromethyl)-1H-pyrazol-4-yl)-3,4-dihydroisoquinolin-1(2H)-one]
> 938 nM | Cc1cc(CN2CCc3c(cc(Cn4ccnc4C)cc3-c3ccccc3)C2=O)ccc1Cl [Example 5, 2-(4-Chloro-3-methylbenzyl)-7-((2-methyl-1H-imidazol-1-yl)methyl)-5-phenyl-3,4-dihydroisoquinolin-1(2H)-one]
> 938 nM | COc1cc(CN2CCc3c(cc(Cn4ccn(C)c4=N)cc3-c3c(C)noc3C)C2=O)cc(OC)c1 [Example 76, 2-(3,5-Dimethoxybenzyl)-5-(3,5-dimethylisoxazol-4-yl)-7-((2-imino-3-methyl-2,3-dihydro-1H-imidazol-1-yl)methyl)-3,4-dihydroisoquinolin-1(2H)-one]
1050 nM | COc1ccnc(CN2CCc3c(cc(Cn4ccnc4C)cc3-c3cc(F)cnc3C)C2=O)c1 [Example 229, 5-(5-Fluoro-2-methylpyridin-3-yl)-2-((4-methoxypyridin-2-yl)methyl)-7-((2-methyl-1H-imidazol-1-yl)methyl)-3,4-dihydroisoquinolin-1(2H)-one]
> 938 nM | Cc1cc(CN2CCc3c(cc(Cn4ccn(C)c4=N)cc3-c3ccc(F)cc3C)C2=O)ccc1Cl [Example 28, 2-(4-Chloro-3-methylbenzyl)-5-(4-fluoro-2-methylphenyl)-7-((2-imino-3-methyl-2,3-dihydro-1H-imidazol-1-yl)methyl)-3,4-dihydroisoquinolin-1(2H)-one]
< 50 nM | CCn1cc(-c2cc(Cn3ccn(C)c3=N)cc3c2CCN([C@@H](C)c2cc(OC)ccn2)C3=O)c(C(F)(F)F)n1 [Example 66, (S)-5-(1-Ethyl-3-(trifluoromethyl)-1H-pyrazol-4-yl)-7-((2-imino-3-methyl-2,3-dihydro-1H-imidazol-1-yl)methyl)-2-(1-(4-methoxypyridin-2-yl)ethyl)-3,4-dihydroisoquinolin-1(2H)-one]
181 nM | COc1ccnc(CN2CCc3c(cc(CN4CCCC4=N)cc3-c3cn(C)nc3C(F)(F)F)C2=O)c1 [Example 108, 7-((2-Iminopyrrolidin-1-yl)methyl)-2-((4-methoxypyridin-2-yl)methyl)-5-(1-methyl-3-(trifluoromethyl)-1H-pyrazol-4-yl)-3,4-dihydroisoquinolin-1(2H)-one]
837 nM | CCn1cc(-c2cc(Cn3ccoc3=N)cc3c2CCN(Cc2cc(OC)ccn2)C3=O)cn1 [Example 87, 5-(1-Ethyl-1H-pyrazol-4-yl)-7-((2-iminooxazol-3(2H)-yl)methyl)-2-((4-methoxypyridin-2-yl)methyl)-3,4-dihydroisoquinolin-1(2H)-one]
85 nM | Cc1cccc(CN2CCc3c(cc(Cn4ccnc4C)cc3-c3cn(C)nc3C(F)(F)F)C2=O)c1 [Example 209, 7-((2-Methyl-1H-imidazol-1-yl)methyl)-5-(1-methyl-3-(trifluoromethyl)-1H-pyrazol-4-yl)-2-(3-methylbenzyl)-3,4-dihydroisoquinolin-1(2H)-one]
75 nM | Cc1nccn1Cc1cc2c(c(-c3cn(C)nc3C(F)(F)F)c1)CCN(Cc1cccc(Br)c1)C2=O [Example 207, 2-(3-Bromobenzyl)-7-((2-methyl-1H-imidazol-1-yl)methyl)-5-(1-methyl-3-(trifluoromethyl)-1H-pyrazol-4-yl)-3,4-dihydroisoquinolin-1(2H)-one]
291 nM | COc1ccnc(CN2CCc3c(cc(Cn4ccn(C)c4=N)cc3-c3cn(C)nc3C)C2=O)c1 [Example 42, 5-(1,3-Dimethyl-1H-pyrazol-4-yl)-7-((2-imino-3-methyl-2,3-dihydro-1H-imidazol-1-yl)methyl)-2-((4-methoxypyridin-2-yl)methyl)-3,4-dihydroisoquinolin-1(2H)-one]
< 50 nM | CCn1cc(-c2cc(Cn3ccnc3C)cc3c2CCN([C@@H](C)c2cc(OC)ccn2)C3=O)c(C(F)(F)F)n1 [Example 156, (S)-5-(1-Ethyl-3-(trifluoromethyl)-1H-pyrazol-4-yl)-2-(1-(4-methoxypyridin-2-yl)ethyl)-7-((2-methyl-1H-imidazol-1-yl)methyl)-3,4-dihydroisoquinolin-1(2H)-one]
> 938 nM | Cc1cc([C@H](C)N2CCc3c(OCC4CC4)cc(Cn4ccn(C)c4=N)cc3C2=O)ccc1F [Example 78, (S)-5-(Cyclopropylmethoxy)-2-(1-(4-fluoro-3-methylphenyl)ethyl)-7-((2-imino-3-methyl-2,3-dihydro-1H-imidazol-1-yl)methyl)-3,4-dihydroisoquinolin-1(2H)-one]
> 938 nM | CCn1cc(-c2cc(Cn3ccn(C)c3=N)cc3c2CCN(Cc2cn(C)nc2C)C3=O)c(C(F)(F)F)n1 [Example 77, 2-((1,3-Dimethyl-1H-pyrazol-4-yl)methyl)-5-(1-ethyl-3-(trifluoromethyl)-1H-pyrazol-4-yl)-7-((2-imino-3-methyl-2,3-dihydro-1H-imidazol-1-yl)methyl)-3,4-dihydroisoquinolin-1(2H)-one]
3910 nM | Cc1nccn1Cc1cc2c(c(-c3cn(C)nc3C(F)(F)F)c1)CCN(CC1CCOCC1)C2=O [Example 173, 7-((2-Methyl-1H-imidazol-1-yl)methyl)-5-(1-methyl-3-(trifluoromethyl)-1H-pyrazol-4-yl)-2-((tetrahydro-2H-pyran-4-yl)methyl)-3,4-dihydroisoquinolin-1(2H)-one]
< 50 nM | COc1ccnc([C@H](C)N2CCc3c(cc(Cn4ccn(C(F)F)c4=N)cc3-c3cn(C)nc3C(F)(F)F)C2=O)c1 [Example 72, (S)-7-((3-(Difluoromethyl)-2-imino-2,3-dihydro-1H-imidazol-1-yl)methyl)-2-(1-(4-methoxypyridin-2-yl)ethyl)-5-(1-methyl-3-(trifluoromethyl)-1H-pyrazol-4-yl)-3,4-dihydroisoquinolin-1(2H)-one]
< 50 nM | CCn1cc(-c2cc(Cn3ccnc3C3CC3)cc3c2CCN([C@@H](C)c2cc(OC)ccn2)C3=O)c(C(F)(F)F)n1 [Example 159, (S)-7-((2-Cyclopropyl-1H-imidazol-1-yl)methyl)-5-(1-ethyl-3-(trifluoromethyl)-1H-pyrazol-4-yl)-2-(1-(4-methoxypyridin-2-yl)ethyl)-3,4-dihydroisoquinolin-1(2H)-one]
572 nM | Cc1cc(CN2CCc3c(cc(Cn4ccnc4C)cc3-c3cccnc3C)C2=O)ccc1Cl [Example 7, 2-(4-Chloro-3-methylbenzyl)-7-((2-methyl-1H-imidazol-1-yl)methyl)-5-(2-methylpyridin-3-yl)-3,4-dihydroisoquinolin-1(2H)-one]
77 nM | CCn1cc(CN2CCc3c(cc(CN4CCOC4=N)cc3-c3cn(CC)nc3C(F)(F)F)C2=O)nn1 [Example 99, 2-((1-Ethyl-1H-1,2,3-triazol-4-yl)methyl)-5-(1-ethyl-3-(trifluoromethyl)-1H-pyrazol-4-yl)-7-((2-iminooxazolidin-3-yl)methyl)-3,4-dihydroisoquinolin-1(2H)-one]
< 50 nM | COc1cncc(CN2CCc3c(cc(Cn4ccnc4C)cc3-c3cn(C)nc3C(F)(F)F)C2=O)c1 [Example 228, 2-((5-Methoxypyridin-3-yl)methyl)-7-((2-methyl-1H-imidazol-1-yl)methyl)-5-(1-methyl-3-(trifluoromethyl)-1H-pyrazol-4-yl)-3,4-dihydroisoquinolin-1(2H)-one]
268 nM | COc1cc(CN2CCc3c(cc(Cn4ccccc4=N)cc3-c3ccc(F)cc3C)C2=O)cc(OC)c1 [Example 116, 2-(3,5-Dimethoxybenzyl)-5-(4-fluoro-2-methylphenyl)-7-((2-iminopyridin-1(2H)-yl)methyl)-3,4-dihydroisoquinolin-1(2H)-one]

SMILES | GI50
COc1cc(CN2CCc3c(OC4CCC4)cc(Cn4ccoc4=N)cc3C2=O)cc(OC)c1 [Example 92, 5-Cyclobutoxy-2-(3,5-dimethoxybenzyl)-7-((2-iminooxazol-3(2H)-yl)methyl)-3,4-dihydroisoquinolin-1(2H)-one] | > 938 nM
